Structures are written as SMILES. Where two headings read alike, the source gives them in different places. Some results are limits rather than exact numbers.

This assay addresses T1, Autotaxin (Homo sapiens, UniProt Q13822).
T1 construct: from tissue; host or cells: pooled human plasma
Put plainly: LPA formation in pooled human plasma (ex vivo autotaxin inhibition). The note with it: 2 hours incubation. The class given is biochemical. Here is the method:
Autotaxin is a plasma phosphodiesterase that converts lysophosphatidylcholine (LPC) into lysophosphatidic acid (LPA), therefore LPA formation was used to evaluate the potency of autotaxin inhibitors. The potency of compound was evaluated ex vivo in pooled human plasma.
Various concentrations of compound were incubated with plasma for 2 hours, and the LPA 18:2 and 20:4 concentration was measured by LC/MS/MS. To determine the LPA18:2 or 20:4 concentration in study plasma, a 10× calibration standard of LPA 18:2 or 20:4 were prepared by serial dilution in butyl alcohol: 20000, 10000, 5000, 2000, 1000, 500, 200, 100, 50, 20, and 10 ng/mL. 3 μL of calibration standard solution was added into 27.0 μL of blank plasma in 1.5-mL microcentrifuge tubes to generate 1× calibration standards. The 30.0 μL of standards or study plasma was added into 1.5-mL microcentrifuge tubes. 200 μL of butyl alcohol (containing 25.0 ng/mL LPA17:0 for internal control) was added into each 1.5-mL microcentrifuge tube containing study plasma or calibration standards. After vortexing for 1 minute and centrifuging at 10000 rpm for 10 min, 180 μL of supernatant was transferred into a 96-well plate and the LPA18:2 concentration in the plasma was quantitated using LC/MS/MS together with standards. Briefly, 8 μL of the solutions were injected for LC-MS/MS analysis using an ACQUITY UPLC BEH C18 column (2.1×50 mm, 1.7 μm) with mobile phase A [20 mM NH4OAC in water (0.1% FA)] and phase B [5 mM NH4OAC in water/0.2% FA in ACN=5:95]. Mass spectrometer parameters optimization for LPA18:2 were performed by Deprotonated molecular ion at m/z 433.2 ([M−H]^−) for LPA18:2, 457.2 for LPA20:4 and abundant product ion at m/z 152.8 for both LPA18:2 and LPA20:4 were obtained. Quantitative data were acquired in multiple reaction monitoring (MRM) negative electrospray ionization mode
The inhibition rate of LPA formation was determined by comparing the levels of LPA in treated and non-treated plasma. The data was plotted against the corresponding concentration of compound and the IC50 was calculated through non-linear regression fitting.

The mark [1] stands for this setting: LPA 18:2 by LC/MS/MS, read-out: LPA formation (18:2) (IC50).
Setting [2] is: LPA 20:4 by LC/MS/MS, read-out: LPA formation (20:4) (IC50).

In the case of `CCc1nn2c(C)cc(N3CC4(CN(C(=O)C(C)(C)O)C4)C3)cc2c1N(C)c1nc(-c2ccc(F)cc2)c(C#N)s1` [Example 30, 2-((2-ethyl-5-(6-(2-hydroxy-2-methylpropanoyl)-2,6-diazaspiro[3.3]heptan-2-yl)-7-methylpyrazolo[1,5-a]pyridin-3-yl)(methyl)amino)-4-(4-fluorophenyl)thiazole-5-carbonitrile], the IC50 (as a rule, the concentration at which inhibition is half-maximal) runs as follows: under setting [1], at most 0.1 µM; under setting [2], at most 0.1 µM.

For `CCc1nn2c(C)cc(N3CC4(CN(C(=O)C5COC5)C4)C3)cc2c1N(C)c1nc(-c2ccc(F)cc2)c(C#N)s1` [Example 31, 2-((2-ethyl-7-methyl-5-(6-(oxetane-3-carbonyl)-2,6-diazaspiro[3.3]heptan-2-yl)pyrazolo[1,5-a]pyridin-3-yl)(methyl)amino)-4-(4-fluorophenyl)thiazole-5-carbonitrile], the 50% inhibitory concentration (IC50) by setting is: under setting [1], 0.1 to 0.5 µM; under setting [2], 0.1 to 0.5 µM.

For the compound `CCc1nn2c(C)cc(N3CC4(CN(C(=O)N5CCN(C)CC5)C4)C3)cc2c1N(C)c1nc(-c2ccc(F)cc2)c(C#N)s1` [Example 32, 2-((2-ethyl-7-methyl-5-(6-(4-methylpiperazine-1-carbonyl)-2,6-diazaspiro[3.3]heptan-2-yl)pyrazolo[1,5-a]pyridin-3-yl)(methyl)amino)-4-(4-fluorophenyl)thiazole-5-carbonitrile], the 50% inhibitory concentration (IC50) reads like this: under setting [1], at most 0.1 µM; under setting [2], at most 0.1 µM.

`CCc1nn2c(C)cc(N3CC4(CN(C(=O)C5CCN(C)CC5)C4)C3)cc2c1N(C)c1nc(-c2ccc(F)cc2)c(C#N)s1` [Example 33, 2-((2-ethyl-7-methyl-5-(6-(1-methylpiperidine-4-carbonyl)-2,6-diazaspiro[3.3]heptan-2-yl)pyrazolo[1,5-a]pyridin-3-yl)(methyl)amino)-4-(4-fluorophenyl)thiazole-5-carbonitrile]: the IC50 runs as follows: under setting [1], at most 0.1 µM; under setting [2], 0.1 to 0.5 µM.

Take `CCc1nn2c(C)cc(N3CC4(CN(C(=O)OC5CCOC5)C4)C3)cc2c1N(C)c1nc(-c2ccc(F)cc2)c(C#N)s1` (stereo not drawn) [Example 34, tetrahydrofuran-3-yl 6-(3-((5-cyano-4-(4-fluorophenyl)thiazol-2-yl)(methyl)amino)-2-ethyl-7-methylpyrazolo[1,5-a]pyridin-5-yl)-2,6-diazaspiro[3.3]heptane-2-carboxylate]: the IC50 by setting is: under setting [1], 0.1 to 0.5 µM; under setting [2], 0.1 to 0.5 µM.

For the compound `CCc1nn2c(C)cc(N3CC4(C3)CN(c3ncco3)C4)cc2c1N(C)c1nc(-c2ccc(F)cc2)c(C#N)s1` [Example 35, 2-((2-ethyl-7-methyl-5-(6-(oxazol-2-yl)-2,6-diazaspiro[3.3]heptan-2-yl)pyrazolo[1,5-a]pyridin-3-yl)(methyl)amino)-4-(4-fluorophenyl)thiazole-5-carbonitrile], the IC50 fell in the range of 0.1 to 0.5 µM under setting [1] and 0.1 to 0.5 µM under setting [2].

On to `CCc1nn2c(C)cc(N3CCC4(CN(C(=O)N5CC(O)C5)C4)C3)cc2c1N(C)c1nc(-c2ccc(F)cc2)c(C#N)s1` [Example 36, 2-((2-ethyl-5-(2-(3-hydroxyazetidine-1-carbonyl)-2,6-diazaspiro[3.4]octan-6-yl)-7-methylpyrazolo[1,5-a]pyridin-3-yl)(methyl)amino)-4-(4-fluorophenyl)thiazole-5-carbonitrile], for which the IC50 was at most 0.1 µM under setting [1] and at most 0.1 µM under setting [2].

Regarding `CCc1nn2c(C)cc(N3CCC4(CCN(C(=O)N5CC(O)C5)C4)CC3)cc2c1N(C)c1nc(-c2ccc(F)cc2)c(C#N)s1` [Example 37, 2-((2-ethyl-5-(2-(3-hydroxyazetidine-1-carbonyl)-2,8-diazaspiro[4.5]decan-8-yl)-7-methylpyrazolo[1,5-a]pyridin-3-yl)(methyl)amino)-4-(4-fluorophenyl)thiazole-5-carbonitrile], the IC50 by setting is: under setting [1], at most 0.1 µM; under setting [2], at most 0.1 µM.

For the compound `CCc1nn2c(C)cc(N3CC4(CN(C(=O)C5CCCO5)C4)C3)cc2c1N(C)c1nc(-c2ccc(F)cc2)c(C#N)s1` (stereo not drawn) [Example 38, 2-((2-ethyl-7-methyl-5-(6-(tetrahydrofuran-2-carbonyl)-2,6-diazaspiro[3.3]heptan-2-yl)pyrazolo[1,5-a]pyridin-3-yl)(methyl)amino)-4-(4-fluorophenyl)thiazole-5-carbonitrile], the concentration for half-maximal inhibition (IC50) under setting [1] is at most 0.1 µM and the 50% inhibitory concentration (IC50) under setting [2] was at most 0.1 µM.

Consider `CCc1nn2c(C)cc(N3CC4(CN(C(=O)[C@H]5CCOC5)C4)C3)cc2c1N(C)c1nc(-c2ccc(F)cc2)c(C#N)s1` [Example 39, (S)-2-((2-ethyl-7-methyl-5-(6-(tetrahydrofuran-3-carbonyl)-2,6-diazaspiro[3.3]heptan-2-yl)pyrazolo[1,5-a]pyridin-3-yl)(methyl)amino)-4-(4-fluorophenyl)thiazole-5-carbonitrile], for which the 50% inhibitory concentration (IC50) under setting [1] was at most 0.1 µM and the IC50 under setting [2] is at most 0.1 µM.

In the case of `CCc1nn2c(C)cc(N3CC4(CN(C(=O)[C@@H]5CCOC5)C4)C3)cc2c1N(C)c1nc(-c2ccc(F)cc2)c(C#N)s1` [Example 40, (R)-2-((2-ethyl-7-methyl-5-(6-(tetrahydrofuran-3-carbonyl)-2,6-diazaspiro[3.3]heptan-2-yl)pyrazolo[1,5-a]pyridin-3-yl)(methyl)amino)-4-(4-fluorophenyl)thiazole-5-carbonitrile], the half-inhibitory concentration (IC50) reads like this: under setting [1], at most 0.1 µM; under setting [2], at most 0.1 µM.

As for `CCc1nn2c(C)cc(N3CC4(CN(C(=O)C5CCOCC5)C4)C3)cc2c1N(C)c1nc(-c2ccc(F)cc2)c(C#N)s1` [Example 41, 2-((2-ethyl-7-methyl-5-(6-(tetrahydro-2H-pyran-4-carbonyl)-2,6-diazaspiro[3.3]heptan-2-yl)pyrazolo[1,5-a]pyridin-3-yl)(methyl)amino)-4-(4-fluorophenyl)thiazole-5-carbonitrile], the IC50 was at most 0.1 µM under setting [1] and at most 0.1 µM under setting [2].

Regarding `CCc1nn2c(C)cc(N3CC4(CN(C(=O)N5CCOCC5)C4)C3)cc2c1N(C)c1nc(-c2ccc(F)cc2)c(C#N)s1` [Example 42], the IC50 was at most 0.1 µM under setting [1] and at most 0.1 µM under setting [2].

Consider `CCc1nn2c(C)cc(N3CCC4(CN(C(=O)C5CCOCC5)C4)C3)cc2c1N(C)c1nc(-c2ccc(F)cc2)c(C#N)s1` [Example 43, 2-((2-ethyl-7-methyl-5-(2-(tetrahydro-2H-pyran-4-carbonyl)-2,6-diazaspiro[3.4]octan-6-yl)pyrazolo[1,5-a]pyridin-3-yl)(methyl)amino)-4-(4-fluorophenyl)thiazole-5-carbonitrile], for which the IC50 is, setting by setting: under setting [1], at most 0.1 µM; under setting [2], at most 0.1 µM.

Regarding `CCc1nn2c(C)cc(N3CC4(CCN(C(=O)C5CCOCC5)C4)C3)cc2c1N(C)c1nc(-c2ccc(F)cc2)c(C#N)s1` [Example 44, 2-((2-ethyl-7-methyl-5-(6-(tetrahydro-2H-pyran-4-carbonyl)-2,6-diazaspiro[3.4]octan-2-yl)pyrazolo[1,5-a]pyridin-3-yl)(methyl)amino)-4-(4-fluorophenyl)thiazole-5-carbonitrile], the half-maximal inhibitory concentration (IC50) reads like this: under setting [1], at most 0.1 µM; under setting [2], at most 0.1 µM.

For the compound `CCc1nn2c(C)cc(N3CC4(CCN(C(=O)[C@H]5CCOC5)C4)C3)cc2c1N(C)c1nc(-c2ccc(F)cc2)c(C#N)s1` [Example 45, (S)-2-((2-ethyl-7-methyl-5-(6-(tetrahydrofuran-3-carbonyl)-2,6-diazaspiro[3.4]octan-2-yl)pyrazolo[1,5-a]pyridin-3-yl)(methyl)amino)-4-(4-fluorophenyl)thiazole-5-carbonitrile], the 50% inhibitory concentration (IC50) was at most 0.1 µM under setting [1] and at most 0.1 µM under setting [2].

`CCc1nn2c(C)cc(N3CC4(CCN(C(=O)[C@H]5CCCO5)C4)C3)cc2c1N(C)c1nc(-c2ccc(F)cc2)c(C#N)s1` [Example 46, (R)-2-((2-ethyl-7-methyl-5-(6-(tetrahydrofuran-2-carbonyl)-2,6-diazaspiro[3.4]octan-2-yl)pyrazolo[1,5-a]pyridin-3-yl)(methyl)amino)-4-(4-fluorophenyl)thiazole-5-carbonitrile]: the IC50 was in the range of 0.1 to 0.5 µM under setting [1] and 0.1 to 0.5 µM under setting [2].

Regarding `CCc1nn2c(C)cc(N3CC4(CCN(C(=O)C5CN(C)C5)C4)C3)cc2c1N(C)c1nc(-c2ccc(F)cc2)c(C#N)s1` [Example 47, 2-((2-ethyl-7-methyl-5-(6-(1-methylazetidine-3-carbonyl)-2,6-diazaspiro[3.4]octan-2-yl)pyrazolo[1,5-a]pyridin-3-yl)(methyl)amino)-4-(4-fluorophenyl)thiazole-5-carbonitrile], the IC50 under setting [1] was at most 0.1 µM and the 50% inhibitory concentration (IC50) under setting [2] was 0.1 to 0.5 µM.

For the origin of these results see patent US10711000B2 (Fronthera U.S. Pharmaceuticals LLC, priority 2018, dated 2020).
